Results from patent US9133122B2, “Amide compounds, compositions and uses thereof” (EVOTEC AG, priority 2008, dated 2015).

What was measured:
hP2X2/3H = molecular target: T1, hP2X2/3H (Homo sapiens, UniProt P56373+Q9UBL9); test: Calcium uptake assay (Ca influx), P2X antagonist assay, P2X2/3 heteromer; type: cell-based; conditions: inhibition of agonist-induced calcium influx
T1 construct: expressed in transfected cells
T1 sequence (P56373 1-397): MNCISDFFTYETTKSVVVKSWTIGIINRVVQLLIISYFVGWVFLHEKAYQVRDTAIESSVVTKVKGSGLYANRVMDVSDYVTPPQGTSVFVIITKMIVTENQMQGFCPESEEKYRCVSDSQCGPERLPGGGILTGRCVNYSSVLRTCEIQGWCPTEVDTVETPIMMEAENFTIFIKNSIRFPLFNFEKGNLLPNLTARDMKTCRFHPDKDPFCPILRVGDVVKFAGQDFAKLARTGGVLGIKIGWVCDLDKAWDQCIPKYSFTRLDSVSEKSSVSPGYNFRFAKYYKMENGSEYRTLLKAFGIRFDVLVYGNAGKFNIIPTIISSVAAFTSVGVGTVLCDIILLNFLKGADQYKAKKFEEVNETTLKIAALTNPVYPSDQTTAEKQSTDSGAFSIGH
T1 sequence (Q9UBL9 1-471): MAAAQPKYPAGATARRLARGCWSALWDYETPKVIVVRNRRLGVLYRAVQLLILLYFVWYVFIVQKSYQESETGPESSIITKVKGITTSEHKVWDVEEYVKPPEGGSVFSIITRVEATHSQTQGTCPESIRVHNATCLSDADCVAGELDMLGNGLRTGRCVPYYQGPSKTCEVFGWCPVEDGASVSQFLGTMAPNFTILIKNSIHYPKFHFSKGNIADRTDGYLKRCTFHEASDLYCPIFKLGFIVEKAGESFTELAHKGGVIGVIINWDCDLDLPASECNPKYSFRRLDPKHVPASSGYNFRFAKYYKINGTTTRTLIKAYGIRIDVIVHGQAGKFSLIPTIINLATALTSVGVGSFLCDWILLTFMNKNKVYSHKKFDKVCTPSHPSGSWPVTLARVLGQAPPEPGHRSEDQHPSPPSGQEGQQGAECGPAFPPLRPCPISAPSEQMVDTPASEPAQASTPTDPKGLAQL
From the text: (§1) Human P2X3 (Accession no. NM_002559), P2X2 (Accession no. NM_170682) and Rat P2X3 (Accession no. NM_031075) and P2X2 (Accession no. NM_053656) are cloned into a mammalian expression vector (e.g., pcDNAS/TO or pcDNA3 Invitrogen). The human P2X2/3 chimera clone is created as described by Neelands et al, and then cloned into an expression vector as above. Receptors are expressed in cells (e.g., HEK293 or 1321N1 (obtained from the ECACC)) via transient transfection using standard lipid mediated transfection, or by creation of stable transfectants for each receptor. For expression of the P2X2/3 heteromeric receptor, the P2X3 expression vector is stably transfected into a cell line already stably expressing P2X2. P2X2/3 heteromer function is isolated using pharmacological methods. Cell lines are maintained in DMEM+5% Glutamax, the appropriate level of selective antibiotic, and 10% heat inactivated FBS.
(§2) Functional activity of compounds at the P2X receptor is determined by measuring their ability to inhibit agonist-induced calcium influx. Compounds are tested for antagonist activity against the P2X2/3 chimera, the P2X3 homomer, or the P2X2/3 heteromer. At the start of each screening day, the agonist EC50 is determined. Compound % inhibition or IC50s are subsequently determined using a predetermined agonist concentration (EC50-90 depending on cell line) as a stimulus. The agonists used are αβMeATP, ATP, or other ATP analogs. Compounds may be tested at concentrations ranging from 1 pM to 10 μM.
(§3) To test for antagonist activity, cells expressing the appropriate receptor are seeded onto 96 or 384 well plates 18-24 hours prior to assay. On the day of the assay, cells are loaded with calcium-sensitive fluorescent dye (e.g., Fluo-4 no wash reagent-Invitrogen cat#F36206, or the BD™ PBX Calcium Assay Kit-BD cat #640175) in Hank's Buffered Salt Solution (HBSS) with up to 10 mM supplemental CaCl2. Plates are incubated at 37° C. and then equilibrated at room temperature. Antagonism of agonist-induced calcium influx is measured using a fluorescent imaging plate reader (e.g. FLIPR^TETRA, Molecular Devices, Sunnyvale, Calif.). The assay comprises two stages: a pre-treatment phase followed by a treatment phase. Compounds may be tested as follows: For the pre-treatment phase, 50 μL of 3× concentration of test compound in HBSS is added to cells containing 100 μL of dye loading media to achieve a final concentration of 1× test compound. For the treatment phase, at a set interval after pre-treatment (1-30 minutes), 50 μL of 1× test compound plus 4× agonist solution is added, resulting in a final concentration of 1× compound and 1× agonist. Fluorescence is measured at 0.1-3 second intervals—with an excitation wavelength of 494 nm and an emission wavelength of 515 nm. Responses are measured as (peak fluorescence after agonist addition) minus (baseline fluorescence prior to treatment). Percent inhibition is calculated as follows:
(§4) [formula] IC50 values are determined by analyzing dose response data in a 4 parameter logistic fit using GraphPad Prizm.
(§5) The following compounds have been or can be prepared according to the synthetic methods described herein. A calcium uptake assay was performed as described above and the activity of each compound is expressed as follows: […]

hP2X3 = molecular target: T2, hP2X3 (Homo sapiens, UniProt P56373); test: Calcium uptake assay (Ca influx), P2X antagonist assay, P2X3 homomer; type: cell-based; conditions: inhibition of agonist-induced calcium influx
T2 construct: expressed in transfected cells
T2 sequence (P56373 1-397): T1 sequence (P56373 1-397)
From the text: as §1, §2, §3, §4, §5

Structure (SMILES) | IC50 (hP2X2/3H) [µM] | IC50 (hP2X3) [µM]
Cc1ccc(-c2cc(C(=O)N[C@H](C)c3cnc(C)nc3)cc(-c3cccc(F)c3F)c2)nc1 [Compound 36, 2′,3′-Difluoro-5-(5-methyl-pyridin-2-yl)-biphenyl-3-carboxylic acid [(R)-1-(2-methyl-pyrimidin-5-yl)-ethyl]-amide] | 0.0328 | 0.0654
Cc1ccc(-c2cc(C(=O)N[C@@H](C)CO)cc(-c3cc(C(F)(F)F)ccc3C#N)c2)nc1 [Compound 79, 2′-Cyano-5-(5-methyl-pyridin-2-yl)-5′-trifluoromethyl-biphenyl-3-carboxylic acid ((S)-2-hydroxy-1-methyl-ethyl)-amide] | 0.444 | 0.0718
Cc1ccc(-c2cc(C(=O)N[C@@H](C)CO)cc(-c3cnccc3C#N)c2)nc1 [Compound 84, 3-(4-Cyano-pyridin-3-yl)-N-((S)-2-hydroxy-1-methyl-ethyl)-5-(5-methyl-pyridin-2-yl)-benzamide] | 0.85 | 0.0103
Cc1ccc(-c2cc(C(=O)N[C@H](C)c3cnc(C)nc3)cc(-c3cnccc3C#N)c2)nc1 [Compound 55, 3-(4-Cyano-pyridin-3-yl)-5-(5-methyl-pyridin-2-yl)-N-[(R)-1-(2-methyl-pyrimidin-5-yl)-ethyl]-benzamide] | 0.0275 | 0.0127
COCC(CO)NC(=O)c1cc(-c2ccc(C)cn2)cc(-c2cccc(F)c2F)c1 (stereo not drawn) [Compound 78, 2′,3′-Difluoro-5-(5-methyl-pyridin-2-yl)-biphenyl-3-carboxylic acid (2-hydroxy-1-methoxymethyl-ethyl)-amide] | 7.17 | 0.221
Cc1ccc(-c2cc(C(=O)NCc3ccc(C)nc3)cc(-c3ccc(C)cc3C#N)c2)nc1 [Compound 35, 2′-Cyano-4′-methyl-5-(5-methyl-pyridin-2-yl)-biphenyl-3-carboxylic acid (6-methyl-pyridin-3-ylmethyl)-amide] | 0.0356 | 0.0508
Cc1ccc(-c2cc(C(=O)N[C@H](C)c3cnc(C)nc3)cc(N3CCCC3=O)c2)cc1 [Compound 48, 4′-Methyl-5-(2-oxo-pyrrolidin-1-yl)-biphenyl-3-carboxylic acid [(R)-1-(2-methyl-pyrimidin-5-yl)-ethyl]-amide] | 0.0332 | 0.0165
Cc1ccc(-c2cc(C(=O)NCc3ccc(C)nc3)cc(-c3ccncc3)c2)nc1 [Compound 19, 3-(5-Methyl-pyridin-2-yl)-N-(6-methyl-pyridin-3-ylmethyl)-5-pyridin-4-yl-benzamide] | 0.238 | 0.0614
Cc1ccc(-c2cc(C(=O)NCc3ccc(C)nc3)cc(N3CCCCC3=O)c2)cc1 [Compound 37, 4′-Methyl-N-((6-methylpyridin-3-yl)methyl)-5-(2-oxopiperidin-1-yl)biphenyl-3-carboxamide] | 0.122 | 0.0486
COc1cccc(-c2cc(C(=O)NCc3ccc(C)nc3)cc(-c3ccc(C)cc3)c2)c1 [Compound 11, 3″-Methoxy-4-methyl-[1,1′;3′,1″]terphenyl-5′-carboxylic acid (6-methyl-pyridin-3-ylmethyl)-amide] | 1.06 | 0.485
Cc1ccc(-c2cc(C(=O)NCc3ccc(C)nc3)cc(-c3ccccc3)c2)nc1 [Compound 21, 5-(5-Methyl-pyridin-2-yl)-biphenyl-3-carboxylic acid (6-methyl-pyridin-3-ylmethyl)-amide] | 0.914 | 0.192
Cc1ccc(-c2cc(C(=O)N[C@H](C)c3cnc(C)nc3)cc(-c3ccccc3C(=O)N(C)C)c2)nc1 [Compound 54, 5′-(5-Methyl-pyridin-2-yl)-biphenyl-2,3′-dicarboxylic acid 2-dimethylamide 3′-{[(R)-1-(2-methyl-pyrimidin-5-yl)-ethyl]-amide}] | 0.509 | 0.0552
Cc1ccc(-c2cc(C(=O)NCc3ccc(C)nc3)cc(-c3cccnc3)c2)nc1 [Compound 20, 3-(5-Methyl-pyridin-2-yl)-N-(6-methyl-pyridin-3-ylmethyl)-5-pyridin-3-yl-benzamide] | 0.0705 | 0.0385
Cc1ccc(-c2cc(C(=O)NCc3ccc(C)nc3)cc(-c3ccc(F)cc3F)c2)cc1 [Compound 5, 2″,4″-Difluoro-4-methyl-[1,1′;3′,1″]terphenyl-5′-carboxylic acid (6-methyl-pyridin-3-ylmethyl)-amide] | 8.31 | 1.96
Cc1ccc(-c2cc(C(=O)N[C@H](C)CN3CCOCC3)cc(-c3c(F)cccc3C(F)(F)F)c2)nc1 [Compound 83, 2′-Fluoro-5-(5-methyl-pyridin-2-yl)-6′-trifluoromethyl-biphenyl-3-carboxylic acid ((R)-1-methyl-2-morpholin-4-yl-ethyl)-amide] | 0.026 | 0.0721
Cc1ccc(-c2cc(C(=O)N[C@H](C)c3cnc(C)nc3)cc(N3CCCCC3=O)c2)cc1 [Compound 39, (R)-4′-Methyl-N-(1-(2-methylpyrimidin-5-yl)ethyl)-5-(2-oxopiperidin-1-yl)biphenyl-3-carboxamide] | 0.082 | 0.0388
Cc1ccc(-c2cc(C(=O)NCc3cnc(C)nc3)cc(N3CCOCC3=O)c2)c(C#N)c1 [Compound 64, 2′-Cyano-4′-methyl-5-(3-oxo-morpholin-4-yl)-biphenyl-3-carboxylic acid (2-methyl-pyrimidin-5-ylmethyl)-amide] | 0.255 | 0.0332
Cc1ccc(-c2cc(C(=O)NCc3ccc(C)nc3)cc(-c3ccccc3OC(F)(F)F)c2)nc1 [Compound 14, 5-(5-Methyl-pyridin-2-yl)-2′-trifluoromethoxy-biphenyl-3-carboxylic acid (6-methyl-pyridin-3-ylmethyl)-amide] | 0.172 | 0.318
COc1ncc(-c2cc(C(=O)NCc3ccc(C)nc3)cc(-c3ccc(C)cn3)c2)cn1 [Compound 16, 3-(2-Methoxy-pyrimidin-5-yl)-5-(5-methyl-pyridin-2-yl)-N-(6-methyl-pyridin-3-ylmethyl)-benzamide] | 0.269 | 0.0956
Cc1ccc(-c2cc(C(=O)NCc3ccc(C)nc3)cc(-c3ccccn3)c2)nc1 [Compound 32, 3-(5-Methyl-pyridin-2-yl)-N-(6-methyl-pyridin-3-ylmethyl)-5-pyridin-2-yl-benzamide] | 0.997 | 0.058
Cc1ccc(-c2cc(C(=O)NCc3ccc(C)nc3)cc(-c3cnc(N)cn3)c2)nc1 [Compound 41, 3-(5-Amino-pyrazin-2-yl)-5-(5-methyl-pyridin-2-yl)-N-(6-methyl-pyridin-3-ylmethyl)-benzamide] | 0.169 | 0.0238
